Where “and” joins values, the source holds several entries; their conditions need not be identical. Equal values may be shown once.
Test system: 996289-038-R-J1-PDC complex spheroid viability
Assay: Anticancer human tumor 996289-038-R-J1-PDC patient-derived colon adenocarcinoma cell line growth inhibition [CLK]
Conditions: for viability, T/C: stronger effect = lower value
Text: A high-throughput screen of multi-cell type tumor spheroids was designed to identify active combinations of […] and targeted small molecules. Complex spheroids include a stromal component modeled by human endothelial cells (HUVEC) and fibroblasts modeled by human mesenchymal stem cells (MSCs). The concentration ranges selected for each drug and investigational agent were based upon clinically achievable concentrations if the clinical Cmax of the agent was known.
Compounds. The drugs and investigational agents: cirtuvivint (SM08502; NSC835563), CC-671 (NSC850746), vemurafenib (NSC761431), tapotoclax (NSC804041), sotorasib (NSC818433), adagrasib (NSC831453), MRTX-1133 (NSC836407), BAY2416964 (NSC825713), copanlisib (NSC816437), inavolisib (NSC800729), abemaciclib (NSC768073), osimertinib (NSC779217), entinostat (NSC756642), eltanexor (KPT-8602, NSC794443), venetoclax (NSC766270), ceralasertib (NSC777638), bortezomib (NSC756655), olaparib (NSC753686), talazoparib (NSC767125), alisertib (NSC759677), peposertib (NSC802822), gemcitabine (NSC613327), 5-fluorouracil (NSC19893), SN-38 (NSC673596), oxaliplatin (NSC266046), paclitaxel (NSC125973), and doxorubicin (NSC123127), were obtained from the National Cancer Institute (NCI) Developmental Therapeutics Program Chemical Repository. The FDA-approved anticancer drug set is available from the Developmental Therapeutics Program at https://dtp.cancer.gov/organization/dscb/obtaining/available plates.htm. […] The stock solutions were prepared in dimethyl sulfoxide (DMSO, Sigma-Aldrich, St. Louis, MO, cat. D2650), except for the platinum complexes which were prepared in saline (Quality Biological, Gaithersburg, MD, cat. 114-055-101), at 800-fold the tested concentration and stored at -70 degrees C prior to their use. All drugs and investigational agents were tested over a range starting from a high concentration at or near the clinical Cmax and decreasing in half-log increments. If the clinical Cmax for an agent had not been determined, the highest concentration tested was 10 microM.
Cell Culture. All cells were maintained in an incubator at 37 degrees C and 5% CO2 with 95% humidity. The PDC lines were cultured according to standard operating procedures established by the NCI PDMR. Briefly, all PDCs were thawed and cultured in Matrigel-coated flasks prepared with a working solution of 1X Ham's F-12 nutrient mix, without supplementation (Invitrogen, Waltham, MA, cat. 11765054), 100 U/mL penicillin-streptomycin (Invitrogen, cat. 15140122), and 2.5% Matrigel (Corning Inc., Corning, NY, cat. 354248) for the first three passages. The 947758-054-R-J2-PDC line was cultured in 6B/Colon 1A media, which includes advanced DMEM/F-12 (Thermo Fisher Scientific, cat. 12634028), 10 mM HEPES (Thermo Fisher Scientific, cat. 15630080), 1X GlutaMAX supplement (Thermo Fisher Scientific, cat. 35050061), 0.1 mg/mL primocin (InvivoGen, cat. ant-pm-2), 10% defined fetal bovine serum, heat inactivated (HyClone Laboratories Inc., cat. SH30070.03HI), 1.25 mM N-Acetyl-L-cysteine (Sigma-Aldrich, cat. A9165), 10 mM nicotinamide (Sigma-Aldrich, cat. N0636), 1X B-27 supplement (Thermo Fisher Scientific, cat. 17504044), 1X N-2 supplement (Thermo Fisher Scientific, cat. 17502048), and 10 microM Y-27632 dihydrochloride (Tocris Bioscience, cat. 1254). The 876862-298-R-J1-PDC was cultured in 6E media, which includes all 6B/Colon 1A media components plus 50% L-WRN conditioned media (ATCC, cat. CRL-3276), 50 ng/mL recombinant human EGF recombinant protein (hEGF; Thermo Fisher Scientific, cat. PHG0311), 10 ng/mL recombinant human fibroblast growth factor 10 (hGFG-10; PeproTech, cat. 100-26), 1 ng/mL recombinant human fibroblast growth factor 2 (hFGF-2; PeproTech, cat. 100-18B), and 1 µM prostaglandin E2 (PGE2; Tocris, cat. 2296). The 227483-062-R1-J1-PDC line was cultured in Panc media, containing all 6E components except hFGF-2, with the addition of 500 nM SB-431542 (Selleckchem, cat. S1067) and 10 nM gastrin (Tocris, cat. 3006). […]
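Further: spheroids exposed to the agents for 7 days before readout.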

Structure (SMILES) | viability, T/C (compound 0.00316 µM) | viability, T/C (compound 0.01 µM) | viability, T/C (compound 0.0316 µM) | viability, T/C (compound 0.1 µM) | viability, T/C (compound 0.316 µM) | viability, T/C (compound 1 µM) | IC50 (curve of compound) | viability, T/C (compound 3.16 µM) | viability, T/C (compound 10 µM) | IC50 (compound alone, run of 08/14/2023) | IC50 (compound alone, run of 08/15/2023) | viability, T/C (compound 0.000316 µM) | viability, T/C (compound 0.001 µM) | viability, T/C (compound 0.00949 µM) | viability, T/C (compound 0.03 µM) | viability, T/C (compound 0.0949 µM) | viability, T/C (compound 0.3 µM) | viability, T/C (compound 0.949 µM) | viability, T/C (compound 3 µM)
CCc1c2c(nc3ccc(O)cc13)-c1cc3c(c(=O)n1C2)COC(=O)[C@]3(O)CC | 98.9% and 99.3% | 81.9% and 72.3% | 60.8% and 61.9% | 55.7% and 58.6% | 45.8% and 50.8% | 25.7% and 30.8% | 0.135 µM and 0.165 µM |  |  |  |  |  |  |  |  |  |  |  | 
CN1CCN(c2cc(C(=O)Nc3cc4cc(-c5cnn(C)c5)ccc4cn3)ccn2)CC1 |  |  | 102% [middle of 12 runs] | 95.1% [middle of 12 runs] | 71.7% [middle of 12 runs] | 4.43% [middle of 11 runs] |  | 1.12% [middle of 11 runs] | 0.43% [middle of 9 runs] | 461 nM [middle of 10 runs] |  |  |  |  |  |  |  |  | 
CNC(=O)c1ccc(Nc2nc(OC3CCCC3)c3c(-c4ccc5nc(C)oc5c4)c[nH]c3n2)c(OC)c1 |  |  | 120% [middle of 12 runs] | 119% [middle of 12 runs] | 78.9% [middle of 12 runs] | 62.1% [middle of 12 runs] |  | 61.1% [middle of 12 runs] | 63.1% [middle of 12 runs] |  | > 10 µM and 8.19 µM |  |  |  |  |  |  |  | 
COC1C=CCC(C)C(C)S(=O)(=O)NC(=O)c2ccc3c(c2)N(CC2CCC21)CC1(CCCc2cc(Cl)ccc21)CO3 (configuration not stated) |  |  | 101% and 104% | 88.7% and 93.9% | 93.5% and 97.9% | 78.9% and 89.3% | 5.36 µM and 5.44 µM | 64.2% and 59.8% | 33.9% and 39% |  |  |  |  |  |  |  |  |  | 
COc1c(OCCCN2CCOCC2)ccc2c3n(c(=NC(=O)c4cnc(N)nc4)nc12)CCN3 | 87.7% and 97.2% | 75.6% and 64.2% | 66.9% and 64.2% | 45.9% and 46.1% | 31.9% and 30.1% | 20.4% and 22.4% | 0.0836 µM and 0.0645 µM |  |  |  |  |  |  |  |  |  |  |  | 
Cn1ncnc1[C@H]1c2n[nH]c(=O)c3cc(F)cc(c23)N[C@@H]1c1ccc(F)cc1 | 107% and 108% | 103% and 105% | 99% and 117% | 85.3% and 95.5% |  |  | > 0.1 µM |  |  |  |  | 98% and 109% | 90.6% and 97.8% |  |  |  |  |  | 
NC(=O)C(=Cn1cnc(-c2cc(C(F)(F)F)cc(C(F)(F)F)c2)n1)c1cncnc1 |  |  |  |  |  |  | 0.0744 µM and 0.0789 µM |  |  |  |  |  |  | 83% and 87.8% | 63% and 63.2% | 49.2% and 52.4% | 28.8% and 28.9% | 19.9% and 22.7% | 18.5% and 21.2%
Nc1ccccc1NC(=O)c1ccc(CNC(=O)OCc2cccnc2)cc1 |  |  | 88.5% and 105% | 89.2% and 81.2% | 91.8% and 98.1% | 87.1% and 85% | 6.4 µM and 7.34 µM | 61.8% and 65.7% | 42.5% and 44.2% |  |  |  |  |  |  |  |  |  | 
Nc1ccn(C2OC(CO)C(O)C2(F)F)c(=O)n1 (configuration not stated) |  |  | 82% and 89.3% | 62.9% and 70.5% | 62.4% and 68.2% | 55.8% and 65.7% | > 10 µM | 54.8% and 69.3% | 47% and 59% |  |  |  |  |  |  |  |  |  | 
O=C(c1cc(Cc2n[nH]c(=O)c3ccccc23)ccc1F)N1CCN(C(=O)C2CC2)CC1 |  |  | 99.9% and 109% | 98.6% and 86.6% | 103% and 108% | 99.1% and 105% | > 10 µM | 105% and 113% | 93.9% and 104% |  |  |  |  |  |  |  |  |  | 
O=c1[nH]cc(F)c(=O)[nH]1 |  |  | 99.2% and 101% | 83.9% and 82.2% | 83.3% and 88.9% | 79.7% and 78.6% | > 10 µM | 77.9% and 85.8% | 73.3% and 74.8% |  |  |  |  |  |  |  |  |  | 
